{"source": "patent US20230372282A1", "about": "“METHOD FOR TREATEING OR […] OPTIC NEUROPATHY” (TZU CHI UNIVERSITY, priority 2022, published 2023)", "key": {"CNPase": {"tested_on": "CNPase", "experiment": "Immunohistochemistry of CNPase in the optic nerve (myelin integrity)", "assay_type": "in vivo, rat", "conditions": "rAION rats, BP 10 mg/kg i.p. 7 days; after AION induction 4.24±0.71, sham 11.06±2.60", "description": "(§1) Adult male Wistar rats of 4 to 6 weeks of age (weighing 100-125 g) were used in the animal model of ischemic optic neuropathy and were divided into three groups: the sham group, the group administered with PBS following ischemic optic neuropathy injury, and the group with ischemic optic neuropathy injury accompanied by intraperitoneal injection of BP at 10 mg/kg for 7 consecutive days. The rats were housed in an animal room having a 12-hour light/dark cycle (the light cycle time is from 7 a.m. to 7 p.m.) with temperature controlled at 23° C. and humidity controlled at 55%, and supplied with filtered sterilized water and general rodent feed. During the experiment, general anesthesia of rats was performed by intramuscular injection of ketamine at 100 mg/kg and xylazine at 10 mg/kg. […]\n(§2) First, vertical-sections of the ON were blocked with 2% bovine serum albumin (BSA) containing 0.3% triton X-100 for 1 hour. […] Fluorescence photographs of the sections of the ON tissue were taken at 10× magnification and 20× magnification using the Zeiss LSM 900 confocal system. The 20× magnified image of ED1^+ cells was analyzed using ImageJ software for quantification of exogenous macrophages. […]"}, "RGC layer": {"tested_on": "RGC layer", "experiment": "TUNEL assay of apoptotic cells in the RGC layer", "assay_type": "in vivo, rat", "conditions": "rAION rats, BP 10 mg/kg i.p. 7 days; PBS group 11.2±2.8, sham 2.8±1.9", "description": "as §1, with “mg/kg. Local anesthesia was performed by using 0.5% Alcaine, and mydriasis was performed by administering Mydrin-P. To sacrifice the rats, carbon dioxide at a filling rate of 5 L/min was injected so that the volume of carbon dioxide was 20% of that of the cage, thereby achieving the main goal of reducing animal suffering.” for “mg/kg.”\nApoptotic cells in the ganglion cell layer (GCL) were detected using TUNEL assay according to the manufacturer's protocol. TUNEL-positive cells were calculated manually based on at least 6 retinal sections per eyeball in three groups (n=6 for each group). […]"}, "rAION model [1]": {"tested_on": "rAION model", "experiment": "Flash visual evoked potential (FVEP), P1-N2 amplitude after AION induction", "assay_type": "in vivo, rat", "conditions": "28 days after AION induction, BP 10 mg/kg i.p. 7 days; PBS group 13.70±5.59, sham 33.63±8.30", "description": "as §1\nTwenty-eight days after AION induction, electrodes were implanted into the primary visual cortex (anteroposterior: −8 mm; dorsoventral: ±3 mm) and frontal cortex (anteroposterior: +1 mm), while a ground electrode was implanted in the tail. […] The general visual function was evaluated by P1-N2 amplitude. […]"}, "[2]": {"tested_on": "retinal ganglion cells (RGCs)", "experiment": "Retrograde labeling of RGCs with FluoroGold: RGC density and survival after AION induction", "assay_type": "in vivo, rat", "description": "(§3) Adult male Wistar rats of 4 to 6 weeks of age (weighing 100-125 g) were used in the animal model of ischemic optic neuropathy and were divided into three groups: the sham group, the group administered with PBS following ischemic optic neuropathy injury, and the group with ischemic optic neuropathy injury accompanied by intraperitoneal injection of BP at 10 mg/kg for 7 consecutive days. The rats were housed in an animal room having a 12-hour light/dark cycle (the light cycle time is from 7 a.m. to 7 p.m.) with temperature controlled at 23° C. and humidity controlled at 55%, and supplied with filtered sterilized water and general rodent feed. During the experiment, general anesthesia of rats was performed by intramuscular injection of ketamine at 100 mg/kg and xylazine at 10 mg/kg. Local anesthesia was performed by using 0.5% Alcaine, and mydriasis was performed by administering Mydrin-P. To sacrifice the rats, carbon dioxide at a filling rate of 5 L/min was injected so that the volume of carbon dioxide was 20% of that of the cage, thereby achieving the main goal of reducing animal suffering.\n(§4) Firstly, under local anesthesia, rats were administrated with Alcaine and Mydrin-P eye drops to induce mydriasis. Subsequently, the rats were intravenously injected with rose bengal (2.5 mM dissolved in PBS at pH 7.4) at 1 mL/kg, and immediately irradiated with 12 pulses (once per second) of argon green laser (wavelength: 532 nm, size: […], power: 80 mW) to excite various parts of the optic disc. In addition, the laser was focused on the optic disc by an ophthalmoscope. Then, Tobradex eye ointment was applied evenly to the rats' eyes. Finally, the physical health of the rats was taken care of daily until the end of the study.\nRetrograde labeling was performed three weeks after the rats were AION induced. […] One week after labeling, the rats were sacrificed and the eyeballs were carefully removed from the […] and fixed in 10% formalin for 2 hours. The entire retina was placed flat on a slide and paired with a filter set (excitation filter: 350-400 nm; radiation filter: 515 nm) and observed for morphology under a fluorescence microscope. The region with a radius of 1 mm from the center of the retina is defined as the central region, and the region with a radius of 3 mm from the center is defined as the mid-peripheral region. Ten blocks (38,250 μm^2; 225 μm×170 μm) were randomly selected from the central region and the mid-peripheral region to estimate the density of RGCs to determine the survival rate of RGCs.\nTo investigate the effect of BP on RGC survival rates after AION induction, retrograde labeling was carried out using Fluorogold (FG). […]"}, "rAION model [3]": {"tested_on": "rAION model", "experiment": "Optical coherence tomography (OCT) imaging of optic nerve width and RNFL after AION induction", "assay_type": "in vivo, rat", "conditions": "BP 10 mg/kg i.p.", "description": "as §3, §4\nOn days 1, 3, 7, 14, and 28 after AION induction, the optic nerve width (ONW) and the coherence tomography image of the retinal nerve fiber layer (RNFL) were obtained using a Micron IV retinal microscope. The vertical resolution and horizontal resolution of the imaging system were set to be 1.8 μm and 3 μm, respectively, to provide a 3.2 mm field of view and 1.2 mm depth of field for the retina. The cornea was moistened with Methocel 2%. The Micron eyepiece was glued to be in direct contact with the eye. To allow vertical light penetration through the cornea, the retinal nerve fiber layer and the Bruch's membrane opening (ONW) were imaged with circular and linear scans, respectively, with an average of 50 frames per scan.\nThe optic nerve width (ONW) and retinal nerve fiber layer (RNFL) thickness were measured on days 1, 3, 7, 14, and 28 using optical coherence tomography (OCT) imaging in the sham group, PBS-treated group, and BP-treated group. As shown in FIG. 5A and FIG. 5B, after AION induction, optic disc swelling can clearly observed in the acute onset stage, and it was improved by administration of BP on days 3, 7 and 28 (311.95±23.21 μm vs. 469.58±29.35 μm, 259.35±33.73 μm vs. 329±25.73 μm, 273.71±23.22 μm vs. 300.73±26.41 μm, respectively). Compared with the PBS-treated group, BP was efficient in maintaining the area of the RNFL (0.089±0.0027 mm^2 vs. 0.08±0.0028 mm^2, 0.074±0.0089 mm^2 vs. 0.047±0.0042 mm^2 respectively) on days 14 and 28."}, "ED1+ macrophages": {"tested_on": "ED1+ macrophages", "experiment": "Immunohistochemistry of ED1+ macrophage infiltration in the optic nerve", "assay_type": "in vivo, rat", "conditions": "rAION rats, BP 10 mg/kg i.p. 7 days; PBS group 166.4±19.3, sham 8.7±4.8", "description": "as §1, §2"}, "NF-κB signaling pathway": {"tested_on": "NF-κB signaling pathway", "experiment": "Western blotting of retinal protein, NF-κB-related pathway", "assay_type": "in vivo", "conditions": "rat retina, rAION, compared with AION+PBS group", "description": "as §3, §4\nThe detailed process of Western blotting process was described in the inventors' previous articles Cell Death Dis. 2017, 8, e3172 and Nat. Med. 2015, 21, 677-687. The total protein of the rat retina was extracted with modified radio immunoprecipitation assay (RIPA) buffer, and the protein concentrations were analyzed using the bicinchoninic acid (BCA) protein assay kit. […] The protein signal on the membrane was detected using an enhanced chemiluminescence (ECL) kit. The signal strength of the bands was quantified using ImageJ software.\nPrevious studies have pointed out that the upregulation of reactive oxygen species (ROS) in ischemic injury induces inflammatory response through the IκBα-NF-κB signaling pathway. Here, protein expression of the NF-κB-related pathway was evaluated to investigate the molecular mechanisms involved in the protection of nerves by administration of BP. […]"}, "[4]": {"conditions": "rodent model of NAION, BP 10 mg/kg i.p. 7 days"}}, "data": [{"smiles": "CCC/C=C1\\OC(=O)c2ccccc21", "note": "[BP, n-butylidenephthalide]", "values": [{"measurement": "expression of CNPase in the optic nerve (IHC signal)", "setting": "CNPase", "value": "7.20±1.22"}, {"measurement": "TUNEL-positive cells in the RGC layer per high powered field (HPF)", "setting": "RGC layer", "value": "3.7±1.5"}, {"measurement": "FVEP P1 to N2 amplitude", "setting": "rAION model [1]", "value": "22.01±7.03", "unit": "μV"}, {"measurement": "density of RGCs in the central retina", "setting": "[2]; rAION Wistar rats, BP 10 mg/kg intraperitoneal for 7 consecutive days, FluoroGold labeling 3 weeks after induction, sacrifice 1 week later, PBS group 935±514, sham 2771±453", "value": "2172±458", "unit": "RGCs per mm^2"}, {"measurement": "density of RGCs in the mid-peripheral retina", "setting": "[2]; rAION Wistar rats, BP 10 mg/kg intraperitoneal for 7 consecutive days, PBS group 750±452, sham 2236±487", "value": "1962±505", "unit": "RGCs per mm^2"}, {"measurement": "improvement of RGC survival rate in the central retina", "setting": "[2]; [4]", "value": 44.7, "unit": "%"}, {"measurement": "improvement of RGC survival rate in the mid-peripheral retina", "setting": "[2]; [4]", "value": 54.2, "unit": "%"}, {"measurement": "optic nerve width (ONW)", "setting": "rAION model [3]; day 3 after AION induction, vs. 469.58±29.35 PBS group", "value": "311.95±23.21", "unit": "μm"}, {"measurement": "optic nerve width (ONW)", "setting": "rAION model [3]; day 7 after AION induction, vs. 329±25.73 PBS group", "value": "259.35±33.73", "unit": "μm"}, {"measurement": "area of the RNFL", "setting": "rAION model [3]; day 14 after AION induction, vs. 0.08±0.0028 PBS group", "value": "0.089±0.0027", "unit": "mm^2"}, {"measurement": "area of the RNFL", "setting": "rAION model [3]; day 28 after AION induction, vs. 0.047±0.0042 PBS group", "value": "0.074±0.0089", "unit": "mm^2"}, {"measurement": "optic nerve width (ONW)", "setting": "rAION model [3]; day 28 after AION induction, vs. 300.73±26.41 PBS group", "value": "273.71±23.22", "unit": "μm"}, {"measurement": "ED1-positive cells in the optic nerve per high powered field", "setting": "ED1+ macrophages", "value": "80.1±28.9"}, {"measurement": "expression of IL-1β", "setting": "NF-κB signaling pathway", "value": "reduced expression"}, {"measurement": "expression of NLRP3", "setting": "NF-κB signaling pathway", "value": "reduced expression"}, {"measurement": "phosphorylation of IκBα (phospho-IκBα expression level)", "setting": "NF-κB signaling pathway", "value": "significantly inhibited phosphorylation"}, {"measurement": "phosphorylation of NF-κB (phospho-NF-κB expression level)", "setting": "NF-κB signaling pathway", "value": "significantly inhibited phosphorylation"}]}]}
